Measurements reported in ChEMBL document CHEMBL1131766, “On the analogy between forskolin and D-glucose” (Bioorg Med Chem Lett, 1999).
pEC50, pKi: −log10 of the molar value.

Experiments:
[1] = species on record: Rattus norvegicus; experiment: Compound was tested for inhibition of glucose transport in rat adipocyte; type: functional, organism-based
[2] = species on record: Rattus norvegicus; experiment: Compound was tested for inhibition of glucose transport in adipocytes plasma membrane vesicles using [H]-forskolin as radioligand; type: functional
[3] = species on record: Homo sapiens; experiment: Compound was testd for inhibition of glucose transport human erythrocytes using [H]-forskolin as radioligand; type: functional, organism-based
[4] = species on record: Homo sapiens; experiment: Compound was testd for inhibition of glucose transport human platelets using [H]-forskolin as radioligand; type: functional, organism-based

Row | pKi [1] | pEC50 [2] | pEC50 [3] | pEC50 [4] | Compound
1 | 2.07 | – | – | – | CC(=O)O[C@@H]1[C@@H](O)[C@H](O)[C@@H](CO)O[C@@H]1O
2 | – | 5.15 | – | – | C=C[C@@]1(C)CC(=O)[C@]2(O)[C@@]3(C)[C@@H](O)CCC(C)(C)[C@@H]3[C@H](O)[C@H](O)[C@@]2(C)O1
3 | – | 6.62 | 6.62 | 6.62 | C=C[C@@]1(C)CC(=O)[C@]2(O)[C@@]3(C)[C@@H](O)CCC(C)(C)[C@@H]3[C@H](O)[C@H](OC(C)=O)[C@@]2(C)O1 [COLFORSIN]
